# Assay results as given in patent publication US20080262040A1, “Chemical Compounds” (SMITHKLINE BEECHAM CORPORATION, priority 2005, published 2008).
# Biological target: T1, Recombinant human IKKβ (residues 1-737) (IKK2) (Homo sapiens, UniProt O14920)
# T1 construct: Recombinant human IKKβ (residues 1-737) was expressed in baculovirus; GST (C); made in house
# T1 sequence (O14920 1-737): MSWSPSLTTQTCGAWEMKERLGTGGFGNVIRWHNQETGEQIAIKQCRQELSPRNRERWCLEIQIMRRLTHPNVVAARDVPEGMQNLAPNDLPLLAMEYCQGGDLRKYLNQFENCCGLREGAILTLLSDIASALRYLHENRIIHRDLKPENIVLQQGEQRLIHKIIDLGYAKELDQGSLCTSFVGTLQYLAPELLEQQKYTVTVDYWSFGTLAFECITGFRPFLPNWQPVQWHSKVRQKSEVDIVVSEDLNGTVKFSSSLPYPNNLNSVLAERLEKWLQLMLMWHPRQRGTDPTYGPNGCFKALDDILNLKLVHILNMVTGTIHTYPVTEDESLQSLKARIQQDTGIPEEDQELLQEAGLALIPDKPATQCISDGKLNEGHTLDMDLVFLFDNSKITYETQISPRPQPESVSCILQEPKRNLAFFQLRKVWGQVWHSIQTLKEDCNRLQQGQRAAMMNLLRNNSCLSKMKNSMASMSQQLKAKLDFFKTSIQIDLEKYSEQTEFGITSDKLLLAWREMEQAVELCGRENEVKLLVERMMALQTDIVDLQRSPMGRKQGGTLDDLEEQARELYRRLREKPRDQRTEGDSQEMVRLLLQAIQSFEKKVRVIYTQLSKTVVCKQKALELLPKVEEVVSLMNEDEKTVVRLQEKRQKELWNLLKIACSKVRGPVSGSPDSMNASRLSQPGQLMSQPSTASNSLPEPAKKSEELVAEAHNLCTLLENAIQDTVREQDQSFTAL
# Assay: IKK2 TR-FRET assay
# Type: biochemical
# Details: IKK2 5 nM, GST-IκBα 25 nM, ATP 1 μM, 30 minutes at room temperature, read-out: pIC50 against IKK2 (converted)
# Description: Recombinant human IKKβ (residues 1-737) was expressed in baculovirus as a C-terminal GST-tagged fusion protein, and its activity was assessed using a time-resolved fluorescence resonance energy transfer (TR-FRET) assay. Briefly, IKK2 (5 nM final) diluted in assay buffer (50 mM HEPES, 10 mM MgCl2, 1 mM CHAPS pH 7.4 with 1 mM DTT and 0.01% w/v BSA) was added to wells containing various concentrations of compound or DMSO vehicle (3% final). The reaction was initiated by the addition of GST-IκBα substrate (25 nM final)/ATP (1 μM final), in a total volume of 30 μl. The reaction was incubated for 30 minutes at room temperature, then terminated by the addition of 15 μl of 50 mM EDTA. Detection reagent (15 μl) in buffer (100 mM HEPES pH 7.4, 150 mM NaCl and 0.1% w/v BSA) containing antiphosphoserine-IκBα-32/36 monoclonal antibody 12C2 (Cell Signalling Technology, Beverly Mass., USA) labelled with W-1024 europium chelate (Wallac O Y, Turku, Finland), and an APC-labelled anti-GST antibody (Prozyme, San Leandro, Calif., USA) was added and the reaction was further incubated for 60 minutes at room temperature. The degree of phosphorylation of GST-IκBα was measured using a Packard Discovery plate reader (Perkin-Elmer Life Sciences, Pangbourne, UK) as a ratio of specific 665 nm energy transfer signal to reference europium 620 nm signal.
row,SMILES,IC50 [µM]
1,"CC(C)(C)OC(=O)N1CCC(n2ncc3c(C(N)=O)cc(-c4ccccc4)cc32)CC1 [Example 1, 1,1-dimethylethyl-4-[4-(aminocarbonyl)-6-phenyl-1H-indazol-1-yl]-1-piperidinecarboxylate]",≤ 10
2,"NC(=O)c1cc(-c2ccccc2)cc2c1cnn2C1CCNCC1 [Example 2, 6-phenyl-1-(4-piperidinyl)-1H-indazole-4-carboxamide]",≤ 10
3,"NC(=O)c1cc(-c2ccccc2)cc2[nH]ncc12 [Example 3, 6-phenyl-1H-indazole-4-carboxamide]",≤ 10
4,"NC(=O)c1cc(-c2ccccc2)cc2c1cnn2C1CCN(S(=O)(=O)c2ccc(F)cc2)CC1 [Example 4, 1-{1-[(4-fluorophenyl)sulfonyl]-4-piperidinyl}-6-phenyl-1H-indazole-4-carboxamide]",≤ 10
5,"Cn1cnc(S(=O)(=O)N2CCC(n3ncc4c(C(N)=O)cc(-c5ccccc5)cc43)CC2)c1 [Example 5, 1-{1-[(1-methyl-1H-imidazol-4-yl)sulfonyl]-4-piperidinyl}-6-phenyl-1H-indazole-4-carboxamide]",≤ 10
6,"CCC(=O)N1CCC(n2ncc3c(C(N)=O)cc(-c4ccccc4)cc32)CC1 [Example 6, 6-phenyl-1-(1-propanoyl-4-piperidinyl)-1H-indazole-4-carboxamide]",≤ 10
7,"CCS(=O)(=O)N1CCC(n2ncc3c(C(N)=O)cc(-c4ccccc4)cc32)CC1 [Example 7, 1-[1-(ethylsulfonyl)-4-piperidinyl]-6-phenyl-1H-indazole-4-carboxamide]",≤ 10
8,"NC(=O)c1cc(-c2ccccc2)cc2c1cnn2C1CCN(C(=O)c2ccccc2)CC1 [Example 8, 6-phenyl-1-[1-(phenylcarbonyl)-4-piperidinyl]-1H-indazole-4-carboxamide]",≤ 10
9,"NC(=O)c1cc(-c2ccccc2)cc2c1cnn2C1CCN(S(=O)(=O)c2ccccc2)CC1 [Example 9, 6-phenyl-1-[1-(phenylsulfonyl)-4-piperidinyl]-1H-indazole-4-carboxamide]",≤ 10
10,"CC(C)(C)OC(=O)N1CCCC(n2ncc3c(C(N)=O)cc(-c4ccccc4)cc32)C1 (stereo not shown) [Example 12, 1,1-dimethylethyl-3-[4-(aminocarbonyl)-6-phenyl-1H-indazol-1-yl]-1-piperidinecarboxylate]",≤ 10
11,"CCS(=O)(=O)N1CCCC(n2ncc3c(C(N)=O)cc(-c4ccccc4)cc32)C1 (stereo not shown) [Example 14, 1-[1-(ethylsulfonyl)-3-piperidinyl]-6-phenyl-1H-indazole-4-carboxamide]",≤ 10
12,"Cn1cnc(S(=O)(=O)N2CCCC(n3ncc4c(C(N)=O)cc(-c5ccccc5)cc43)C2)c1 (stereo not shown) [Example 15, 1-{1-[(1-methyl-1H-imidazol-4-yl)sulfonyl]-3-piperidinyl}-6-phenyl-1H-indazole-4-carboxamide]",> 15.8
13,"CCC(=O)N1CCCC(n2ncc3c(C(N)=O)cc(-c4ccccc4)cc32)C1 (stereo not shown) [Example 16, 6-phenyl-1-(1-propanoyl-3-piperidinyl)-1H-indazole-4-carboxamide]",> 15.8
14,"NC(=O)c1cc(-c2ccccc2)cc2c1cnn2C1CCCN(C(=O)c2ccccc2)C1 (stereo not shown) [Example 17, 6-phenyl-1-[1-(phenylcarbonyl)-3-piperidinyl]-1H-indazole-4-carboxamide]",> 15.8
15,"NC(=O)c1cc(-c2ccccc2)cc2c1cnn2C1CCCN(S(=O)(=O)c2ccccc2)C1 (stereo not shown) [Example 18, 6-phenyl-1-[1-(phenylsulfonyl)-3-piperidinyl]-1H-indazole-4-carboxamide]",> 15.8
16,"NC(=O)c1cc(-c2ccccc2)cc2c1cnn2C1CCCN(S(=O)(=O)c2ccc(F)cc2)C1 (stereo not shown) [Example 19, 1-{1-[(4-fluorophenyl)sulfonyl]-3-piperidinyl}-6-phenyl-1H-indazole-4-carboxamide]",> 15.8
